# Laboratory results reported in patent publication US7964647B2 (Mutual Pharmaceutical Company, Inc., priority 2007, dated 2011).
# Where two headings read alike, the source gives them in different places.
# What was measured:
# [1] = test system: patients with acute gout flare (acute gouty arthritic attack); experiment: Same acute gout flare study: safety (treatment emergent adverse events); assay type: in vivo, human
# Source text: A sufficient number of patients are screened to enroll and randomize 300 patients (100 patients per treatment group) who meet the criteria of the American College of Rheumatology (ACR) for acute arthritis of gout. […] Secondary objectives of the study are to compare low-dose and standard-dose dosing regimens of colchicine with respect to pain, time to response and complete pain relief, interference with sleep, and signs and symptoms of inflammation and to determine the safety of colchicine when administered in the two different dosing regimens.
# Safety assessments will be made based on patient and Investigator inputs. Patients will be initially screened in the clinic for inclusion by review of medical history and concomitant medication use, physical examination, measurement of vital signs (oral temperature, sitting radial or brachial pulse rate, respiratory rate, and sitting blood pressure), body weight, and clinical laboratory testing (serum biochemistry, complete blood count, and urinalysis). After randomization, clinical laboratory tests, concomitant medication use, medical history and current complaints (AE) will be reviewed every 3 months until an acute gout flare occurs in order to ensure continued eligibility. Compliance with key inclusion/exclusion criteria (based on intervening medical history and concomitant medication use) will be re confirmed by the Gout Flare Call Center prior to authorizing the start of study drug. Following the start of study drug, patients will record any severe gastrointestinal AEs on their diaries and these will be recorded in the Case Report Form (CRF) at each clinic visit. Full physical examinations and clinical laboratory testing will be conducted at the final clinic visit (Visit 4 or Visit 5). Vital signs and body weight will be measured at each Post Flare visit (Visit 3 and 4 or 5). For those patients in whom there is an unresolved AE or clinically significant treatment emergent laboratory abnormality, there will be one additional follow up visit 14 days post flare onset (Visit 6).
# Safety analysis will be performed by coding adverse events using a standardized medical dictionary and the incidence summarized by treatment group; tabulations will be prepared of all AEs as well as by relationship and by severity. Adverse events resulting in termination and events meeting regulatory criteria for seriousness will also be tabulated separately. Descriptive statistics (mean, median, standard deviation, and range) of clinical laboratory testing results and vital sign measurements will be generated for each treatment group and change from the most recent value prior to onset of the acute gout flare calculated; no inferential testing will be performed. Treatment emergent abnormalities on physical examination will be tabulated and listed by treatment group. By patient listings of all safety data and concomitant medication use will be generated.
# [2] = 0.6 mg b.i.d. x 10 days, after last dose (Day 25), healthy adults, N = 13
# [3] = single oral 0.6 mg dose, healthy adults, N = 13
compound,measurement,setting,value
"COc1cc2c(c(OC)c1OC)-c1ccc(OC)c(=O)cc1[C@@H](NC(C)=O)CC2 [Colchicine, (−)-N-[(7S,12aS)-1,2,3,10-tetramethoxy-9-oxo-5,6,7,9-tetrahydrobenzo[a]heptalen-7-yl]-acetamide]",Patients with severe TEAE: Gout,"[1]; All colchicine, N = 126",0 n
same,Patients with severe TEAE: Metabolism and Nutrition Disorders,"[1]; All colchicine, N = 126",0 n
same,Number (%) of patients with a TEAE discontinuing study,"[1]; High dose 4.8 mg, N = 52",0 n (%)
same,Number (%) of patients with a treatment emergent SAE,"[1]; High dose 4.8 mg, N = 52",0 n (%)
same,Number (%) of patients with at least one TEAE,"[1]; High dose 4.8 mg, N = 52",40 (76.9) n (%)
same,Number (%) of patients with at least one mild TEAE,"[1]; High dose 4.8 mg, N = 52",15 (28.8) n (%)
same,Number (%) of patients with at least one moderate TEAE,"[1]; High dose 4.8 mg, N = 52",15 (28.8) n (%)
same,Number (%) of patients with at least one severe TEAE,"[1]; High dose 4.8 mg, N = 52",10 (19.2) n (%)
same,Total number of TEAEs,"[1]; High dose 4.8 mg, N = 52, safety population",85
same,Patients with at least one drug-related TEAE,"[1]; High dose, N = 52",38 (73.1) n (%)
same,Patients with drug-related TEAE: Diarrhea,"[1]; High dose, N = 52",38 (73.1) n (%)
same,Patients with drug-related TEAE: Gastro-intestinal Disorders,"[1]; High dose, N = 52",38 (73.1) n (%)
same,Patients with drug-related TEAE: Nausea,"[1]; High dose, N = 52",7 (13.5) n (%)
same,Patients with drug-related TEAE: Vomiting,"[1]; High dose, N = 52",8 (15.4) n (%)
same,Patients with severe TEAE: Diarrhea,"[1]; High dose, N = 52",19.2%
same,Patients with severe TEAE: Gout,"[1]; High dose, N = 52",0 n
same,Patients with severe TEAE: Metabolism and Nutrition Disorders,"[1]; High dose, N = 52",0 n
same,Number (%) of patients with a TEAE discontinuing study,"[1]; Low dose 1.8 mg, N = 74",0 n (%)
same,Number (%) of patients with a treatment emergent SAE,"[1]; Low dose 1.8 mg, N = 74",0 n (%)
same,Number (%) of patients with at least one TEAE,"[1]; Low dose 1.8 mg, N = 74",27 (36.5) n (%)
same,Number (%) of patients with at least one mild TEAE,"[1]; Low dose 1.8 mg, N = 74",19 (25.7) n (%)
same,Number (%) of patients with at least one moderate TEAE,"[1]; Low dose 1.8 mg, N = 74",8 (10.8) n (%)
same,Number (%) of patients with at least one severe TEAE,"[1]; Low dose 1.8 mg, N = 74",0 n (%)
same,"Number (%) of patients with at least one treatment-emergent gastrointestinal AE, captured on Adverse Event CRF, All","[1]; Low dose 1.8 mg, N = 74",19 (25.7) Number (%)
same,"Number (%) of patients with at least one treatment-emergent gastrointestinal AE, captured on Adverse Event CRF, Severe","[1]; Low dose 1.8 mg, N = 74",0 Number (%)
same,"Number (%) of patients with at least one treatment-emergent gastrointestinal AE, captured on Patient Diary or Adverse Event CRF, All","[1]; Low dose 1.8 mg, N = 74",33 (44.6) Number (%)
same,"Number (%) of patients with at least one treatment-emergent gastrointestinal AE, captured on Patient Diary or Adverse Event CRF, Severe","[1]; Low dose 1.8 mg, N = 74",3 (4.1) Number (%)
same,"Number (%) of patients with at least one treatment-emergent gastrointestinal AE, captured on Patient Diary, Severe","[1]; Low dose 1.8 mg, N = 74",3 (4.1) Number (%)
same,Total number of TEAEs,"[1]; Low dose 1.8 mg, N = 74, safety population",34
same,Patients with at least one severe TEAE (any),"[1]; Low dose, N = 74",0 n
same,Patients with drug-related TEAE: Diarrhea,"[1]; Low dose, N = 74",21.6%
same,Patients with drug-related TEAE: Gastro-intestinal Disorders,"[1]; Low dose, N = 74",24.3%
same,Patients with drug-related TEAE: Vomiting,"[1]; Low dose, N = 74",0 n
same,Patients with severe TEAE: Diarrhea,"[1]; Low dose, N = 74",0 n
same,Patients with severe TEAE: Gastrointestinal Disorders,"[1]; Low dose, N = 74",0 n
same,Patients with severe TEAE: Gout,"[1]; Low dose, N = 74",0 n
same,Patients with severe TEAE: Melaena,"[1]; Low dose, N = 74",0 n
same,Patients with severe TEAE: Metabolism and Nutrition Disorders,"[1]; Low dose, N = 74",0 n
same,Patients with severe TEAE: Musculoskeletal and Connective Tissue Disorders,"[1]; Low dose, N = 74",0 n
same,Patients with severe TEAE: Nausea,"[1]; Low dose, N = 74",0 n
same,Patients with severe TEAE: Pain in Extremity,"[1]; Low dose, N = 74",0 n
same,"Number (%) of patients with at least one treatment-emergent gastrointestinal AE, captured on Adverse Event CRF, All","[1]; Standard dose 4.8 mg, N = 52",40 (76.9)^2 Number (%)
same,"Number (%) of patients with at least one treatment-emergent gastrointestinal AE, captured on Adverse Event CRF, Severe","[1]; Standard dose 4.8 mg, N = 52",10 (19.2) Number (%)
same,"Number (%) of patients with at least one treatment-emergent gastrointestinal AE, captured on Patient Diary or Adverse Event CRF, All","[1]; Standard dose 4.8 mg, N = 52",49 (94.2)^2 Number (%)
same,"Number (%) of patients with at least one treatment-emergent gastrointestinal AE, captured on Patient Diary or Adverse Event CRF, Severe","[1]; Standard dose 4.8 mg, N = 52",18 (34.6) Number (%)
same,"Number (%) of patients with at least one treatment-emergent gastrointestinal AE, captured on Patient Diary, All","[1]; Standard dose 4.8 mg, N = 52",48 (92.3)^2 Number (%)
same,"Number (%) of patients with at least one treatment-emergent gastrointestinal AE, captured on Patient Diary, Severe","[1]; Standard dose 4.8 mg, N = 52",13 (25.0) Number (%)
same,Proportion of patients with vomiting,[1]; high-dose 4.8 mg,15.4%
same,Occurrence of severe diarrhea,[1]; low-dose group 1.8 mg,not occurring
same,Occurrence of vomiting,[1]; low-dose group 1.8 mg,not occurring
same,Proportion of patients with diarrhea,[1]; standard dose 4.8 mg,73.1%
same,Proportion of patients with gastrointestinal side effects,[1]; standard dose 4.8 mg,73.1%
same,"AUC0-inf, MAX",[2],0.06794465 µg·h/mL
same,"AUC0-inf, MEAN",[2],0.05419877 µg·h/mL
same,"AUC0-inf, MEDIAN",[2],0.05411343 µg·h/mL
same,"AUC0-inf, MIN",[2],0.03759976 µg·h/mL
same,"AUC0-t, MAX",[2],0.05826535 µg·h/mL
same,"AUC0-t, MEAN",[2],0.04357696 µg·h/mL
same,"AUC0-t, MEDIAN",[2],0.0419251 µg·h/mL
same,"AUC0-t, MIN",[2],0.02932878 µg·h/mL
same,"AUC0-τ, MAX",[2],0.03608395 µg·h/mL
same,"AUC0-τ, MIN",[2],0.02079198 µg·h/mL
same,"Cave, MAX",[2],1.5035 ng/mL
same,"Cave, MEAN",[2],1.21068 ng/mL
same,"Cave, MEDIAN",[2],1.18551 ng/mL
same,"Cave, MIN",[2],0.86633 ng/mL
same,"Cmax, MAX",[2],4.957 ng/mL
same,"Cmax, MEAN",[2],3.55315 ng/mL
same,"Cmax, MEDIAN",[2],3.734 ng/mL
same,"Cmax, MIN",[2],1.977 ng/mL
same,"Cmin, MAX",[2],1.14967 ng/mL
same,"Cmin, MEDIAN",[2],0.9035 ng/mL
same,"Cmin, MIN",[2],0.63623 ng/mL
same,"Kel, MAX",[2],0.03 h⁻¹
same,"Kel, MEAN",[2],0.03 h⁻¹
same,"Kel, MEDIAN",[2],0.03 h⁻¹
same,"Kel, MIN",[2],0.02 h⁻¹
same,"T1/2, MAX",[2],33.65 h
same,"T1/2, MEDIAN",[2],26.51 h
same,"T1/2, MIN",[2],20.82 h
same,"Tmax, MAX",[2],3.00 h
same,"Tmax, MEAN",[2],1.31 h
same,"Tmax, MIN",[2],0.50 h
same,"AUC0-inf, MAX",[3],0.02383848 µg·h/mL
same,"AUC0-inf, MIN",[3],0.00725266 µg·h/mL
same,"AUC0-t, MAX",[3],0.01812865 µg·h/mL
same,"AUC0-t, MIN",[3],0.00481288 µg·h/mL
same,"Cmax, MAX",[3],3.977 ng/mL
same,"Cmax, MIN",[3],1.584 ng/mL
same,"Kel, MAX",[3],0.2443 h⁻¹
same,"Kel, MEAN",[3],0.1829 h⁻¹
same,"Kel, MEDIAN",[3],0.1992 h⁻¹
same,"Kel, MIN",[3],0.0359 h⁻¹
same,"T1/2, MAX",[3],19.29 h
same,"T1/2, MIN",[3],2.84 h
same,"Tmax, MAX",[3],3.00 h
same,Cmin prior to the morning dose higher than Cmin prior to the evening dose,"steady state, Day 23 and Day 24",approximately 12%
